Assay results: PubChem BioAssay AID1417 (Emory University Molecular Libraries Screening Center, 2008)

Target: Induced myeloid leukemia cell differentiation protein Mcl-1 (Homo sapiens) (UniProt Q07820)
Experiment: Mcl-1/Noxa binding inhibitor potency, dose response, biochemical, TR-FRET (AID 1417)
Conditions: Mcl-1/Noxa peptide interaction, cell-free TR-FRET (terbium/rhodamine), 2 h; measured here: absolute IC50

Induced myeloid leukemia cell differentiation protein Mcl-1 (Homo sapiens), sequence (Q07820 whole entry, looked up): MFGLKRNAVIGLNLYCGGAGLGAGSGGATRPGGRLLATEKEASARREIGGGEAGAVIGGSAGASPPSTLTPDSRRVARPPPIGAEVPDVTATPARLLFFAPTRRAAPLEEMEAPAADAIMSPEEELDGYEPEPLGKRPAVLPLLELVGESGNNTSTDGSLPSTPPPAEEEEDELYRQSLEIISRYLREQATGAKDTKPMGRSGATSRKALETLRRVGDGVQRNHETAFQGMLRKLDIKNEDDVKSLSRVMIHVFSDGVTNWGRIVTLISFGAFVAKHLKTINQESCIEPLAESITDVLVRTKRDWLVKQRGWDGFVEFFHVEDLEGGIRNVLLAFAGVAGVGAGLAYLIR

Structure (SMILES) | IC50 [µM]
Cc1ccc(C2C(/C=C3/SC(=S)NC3=O)=C(c3cccs3)Oc3ccccc32)cc1 (stereo unspecified) | < 0.4
O=C1C(Cl)=C(N2CCCCC2)C(=O)C(Cl)=C1c1cnc(N2CCCCC2)s1 | < 0.4
C=C(C)C(=O)Nc1cccc(C2=NOC3(C2)C[C@H](C(N)=O)N(C(=O)C(c2ccccc2)c2ccccc2)C3)c1 (stereo partly specified) | 4.43
CC(=O)Nc1sc(N/N=C\c2ccc(O)cc2)nc1-c1cccs1 | 1.07
O=C1NC(=S)N(c2ccccc2F)C(=O)/C1=C\c1cccs1 | 3.77
O=[N+]([O-])C(=c1ccc2c(c1)N1C3=C(CCCC3)CC3CCCCC31N=2)[N+](=O)[O-] (stereo unspecified) | < 0.4
COc1ccccc1N1C(=O)C(Cl)=C(Nc2ccccc2O)C1=O | > 54
COc1ccc(NC(=O)c2ccccc2N(Cc2ccccc2)S(C)(=O)=O)cc1 | > 54
CCSc1ncc(/C=N/Nc2ccc([N+](=O)[O-])cc2)n1C | 2.12
Nc1ccc(-c2nc3cc([N+](=O)[O-])ccc3o2)cc1 | 7.16
COc1ccc(CCNC(=O)c2ccc3nc(-c4ccco4)c(-c4ccco4)nc3c2)cc1OC | 4.47
COC(=O)CSc1ncnc2c1sc1nc(-c3ccco3)c3c(c12)CC(C)(C)OC3 | 3.55
Oc1ccc(/C=N/NC(=S)Nc2cccnc2)c(O)c1O | < 0.4
CC(=O)Nc1ccc(-c2csc(NC(=O)C3CC(=O)N(c4ccc5c(c4)OCCO5)C3)n2)cc1 (stereo unspecified) | 3.25
Cc1ccc(C(=O)Nc2ccc(N3CCCC3)cc2)cc1 | > 54
COc1ccc(C(=O)c2sc3nc(-c4ccc(OC)cc4)ccc3c2N)cc1 | > 54
Cc1cc(/C=N/n2c(COc3ccccc3)nc3ccccc3c2=O)c(O)c([N+](=O)[O-])c1 | 1.56
CCCC1=NN2C(=N)/C(=C\c3ccc(SCc4ccco4)o3)C(=O)N=C2S1 | < 0.4
COc1cccc(C(=O)Nc2cc(Cl)c(O)c(Cl)c2)c1 | > 54
Oc1ccc(-c2cn3c(n2)SCC3)cc1O | 1.94
O=C(NCCO)c1ccc2nc(-c3ccco3)c(-c3ccco3)nc2c1 | 0.527
COc1ccc(-c2ccc(/C=C3/C(=N)N4C=CSC4=NC3=O)o2)c([N+](=O)[O-])c1 | 1.66

Structure (SMILES) | IC50 [µM]
CC1CCN(C(c2ccc(N(C)C)cc2)c2nnnn2C(C)(C)C)CC1 (stereo unspecified) | 12.5
CN(C)c1ccc(NC(=O)c2cccc(C(=O)Nc3ccc(N(C)C)cc3)n2)cc1 | 4.03
O=C(CSc1nnc(SCc2ccccc2)s1)N/N=C/C=C/c1ccco1 | 4.87
CCOc1ccc(/C=C/[N+](=O)[O-])c2ccccc12 | 1.7
CC(=O)N1CCc2cc(S(=O)(=O)NC(Cc3ccccc3)C(=O)NC3CCCCCC3)ccc21 (stereo unspecified) | > 54
Cc1csc(NC(=O)c2cc(-c3ccco3)nc3ccccc23)n1 | 2.91
Cc1cccn2c(=O)c3cc(C(=O)NCc4ccco4)c(=N)n(CCc4ccccc4)c3nc12 | 3.15
CC(=O)c1ccc(-n2c(CCC(=O)O)ccc2-c2cccs2)cc1 | > 54
CC(OC(=O)c1cccc(N2C(=O)c3ccccc3C2=O)c1)C(=O)Nc1ccc(N(C)C)cc1 (stereo unspecified) | > 54
O=C(O)CSc1cc(C(=O)c2ccccc2O)cn2c(=O)c3c(-c4ccccc4)csc3nc12 | 5.71
O=[N+]([O-])c1ccccc1/C=C/C=N/n1c(-c2ccccc2)n[nH]c1=S | > 54
CCOC(=O)c1cc(-c2ccc(/C=C3/C(=O)NC(=O)C(C#N)=C3C)o2)ccc1Cl | < 0.4
COc1ccc(C(=O)Nc2ccc(N3CCCC3)cc2)cc1 | 2.65
CC1CCc2c(sc(Nc3nc4c(F)cccc4s3)c2C(N)=O)C1 (stereo unspecified) | < 0.4
Cc1c(O)ccc(/C=N/Nc2nc(-c3cccnc3)nc3ccccc23)c1O | < 0.4
O=C(O)CCN1C(=O)/C(=C/c2cn(-c3ccccc3)nc2-c2cccs2)SC1=S | > 54
O=c1cc(-c2ccccc2Cl)oc2c(NS(=O)(=O)c3cc(Cl)cc(Cl)c3O)ccc(O)c12 | 2.41
O=c1[nH]c(C(Cl)Cl)nc2sc3c(c12)CCN(Cc1ccccc1)C3 | > 54
COc1ccc(N2Cc3cccc(C(=O)N4CCN(C(=O)c5ccco5)CC4)c3C2=O)cc1 | 1.77
O=C(N/N=C/c1ccc(O)cc1O)c1ccc(CN2C(=O)c3cccc4cccc2c34)cc1 | 1.29
Cc1ccc(N=C2NC(=O)/C(=C/C=C/c3ccco3)S2)cc1C | 4.62
Cc1cccc(NC2=C(NC(=O)c3ccccc3)C(=O)c3ccccc3C2=O)c1 | 3.41

Structure (SMILES) | IC50 [µM]
COc1ccc(O)c(C(=O)c2cc(SCC(=O)O)c3nc4sc5c(c4c(=O)n3c2)CCCC5)c1 | < 0.4
O=C(COC(=O)c1ccc2c(c1)C(=O)N(Cc1ccncc1)C2=O)Nc1ccccc1[N+](=O)[O-] | 2.53
COc1cc(/C=C2/SC(=S)NC2=O)ccc1OS(=O)(=O)c1ccc(C)cc1 | 3.26
O=S(=O)(c1ccc2nc(-c3ccco3)c(-c3ccco3)nc2c1)N1CCOCC1 | 8.41
CC(C)(O)C#Cc1ccc(CN2CCN(C3CCCCC3)C(CCO)C2)cc1 (stereo unspecified) | > 54
Oc1ccc(Br)cc1-c1cc(-c2ccc(Cl)cc2)n[nH]1 | 1.68
CCN1C(=O)C(C)S/C1=N\S(=O)(=O)c1ccc(F)cc1 (stereo unspecified) | > 54
O=c1cc(-c2ccc(O)c(-c3c(O)cc(O)c4c(=O)cc(-c5ccc(O)cc5)oc34)c2)oc2cc(O)cc(O)c12 | 1.78
O=C1N/C(=N/Nc2ccccc2)S/C1=C\c1ccccc1 | > 54
O=c1oc2ccccc2c(O)c1/C=C1\C=Nc2ccccc21 | 4.8
CCCc1ccc(/C=C2\C(=O)c3ccccc3C(O)=C2C(=O)OCC)cc1 | > 54
COc1cc(/C=C2\SC(=S)NC2=O)ccc1OS(=O)(=O)c1ccccc1 | 1.97
COc1cc2cc3c(N)c(C(=O)Nc4sc(C)c(C)c4C#N)sc3nc2cc1OC | 1.07
CN1CCN(S(=O)(=O)c2ccc(NC(=S)NC(=O)c3ccc(Cl)cc3)cc2)CC1 | 3.59
O=C(N/N=C/c1ccc(-c2ccc(Cl)c(C(=O)O)c2)o1)c1cc2c(ccc3ccccc32)o1 | < 0.4
Cc1c(NS(=O)(=O)c2cc(NC(=O)CCN3CCCC(C)C3)ccc2Cl)c(=O)n(-c2ccccc2)n1C (stereo unspecified) | > 54
O=C(O)CCn1cc(C=C2C(=O)NC(=S)NC2=O)c(-c2cccc(Cl)c2)n1 | 1.81
Nc1ccc2nc(-c3ccc(Cl)cc3)[nH]c2c1 | 30.5
CCc1n[nH]c(=S)n1/N=C/c1cc(OC)cc([N+](=O)[O-])c1O | < 0.4
O=C1SC(SCc2ccccc2Cl)=N/C1=C\c1ccc(C(=O)O)cc1 | 4.67
O=C(Nc1cccc(S(=O)(=O)NC2=NCCCCC2)c1)c1cc(-c2ccco2)nc2ccccc12 | < 0.4
COc1ccc(-c2csc(NC(=S)NC(=O)c3cccs3)n2)cc1OC | 3.31

Structure (SMILES) | IC50 [µM]
CCc1cc(C(=O)N=Nc2c(O)[nH]c3ccc([N+](=O)[O-])cc23)c2ccccc2n1 | 5.99
O=C(Nc1ccc(N2CCCC2)cc1)c1ccccc1F | 6.9
Oc1[nH]c2ccccc2c1N=Nc1nc2ccccc2s1 | 5.01
COc1ccc(CCNC(=O)COC(=O)Cc2cccc3ccccc23)cc1 | > 54
COc1ccc(C2=NN(c3nc(-c4ccccc4)c(CC(=O)O)s3)C(c3ccco3)C2)cc1 (stereo unspecified) | 11.9
COc1ccc2c3c(cccc13)N(C)N=C2C | 0.931
O=C(Nc1cccc(S(=O)(=O)N2CCOCC2)c1)c1c2c(nc3ccccc13)CCC2 | 3.08
C1=CC2c3ccccc3NC(c3ccncc3)C2C1 (stereo unspecified) | 1.81
CN(C)c1ccc(/C=c2\sc3nc(-c4ccccc4)nn3c2=O)cc1 | 8.8
COc1ccc(/C=C2\SC(=O)N(CCC(=O)Nc3ccc(S(=O)(=O)Nc4nccs4)cc3)C2=O)cc1 | < 0.4
O=[N+]([O-])c1c(NCCO)cc(Sc2nc3ccccc3s2)c2nonc12 | > 54
COc1ccccc1/C=c1\sc2nc(-c3ccco3)nn2c1=O | 8.18
O=C(/C=C/c1cccs1)N1CCN(c2ccc(O)cc2)CC1 | 3.64
O=C(NCC1CCCO1)c1ccc(Cn2c(=S)[nH]c3ccccc3c2=O)cc1 (stereo unspecified) | > 54
Nc1cc2nc[nH]c2cc1N | 52.8
O=C1NN(c2ccccc2)C(=O)/C1=C\c1ccc(-c2cc([N+](=O)[O-])ccc2O)o1 | 9.71
CCOc1cc(/C=N/Nc2nc(-c3cccs3)c(NC(C)=O)s2)ccc1O | < 0.4
Cc1cccc(N=C2NC(=O)/C(=C/C=C/c3ccco3)S2)c1 | 13.5
COc1cccc(C(Nc2ccccn2)c2oc(CO)cc(=O)c2O)c1 (stereo unspecified) | < 0.4
Oc1ccc(N2CCN(c3ncnc4sc(-c5ccccc5)cc34)CC2)cc1 | 1.15
COc1cc(/C=C(/NC(C)=O)C(=O)O)cc(Cl)c1OCc1ccc(Br)cc1 | > 54
O=C(CSc1ccsc1[N+](=O)[O-])Nc1cc(F)ccc1F | > 54

Structure (SMILES) | IC50 [µM]
CC(C)(C)c1ccc(CN2N=Nc3ccccc3S2(=O)=O)cc1 | 18.9
O=Cc1[nH]c2ccccc2c1N(C(=O)CCl)c1ccc([N+](=O)[O-])cc1 | > 54
Cc1ccc(O)c(NC2=C(Cl)C(=O)N(Cc3ccccc3)C2=O)c1 | > 54
CCN(c1ccc(NC(=O)COC(=O)c2cc3ccccc3oc2=O)cc1)C(C)C | > 54
O=C(COC(=O)c1c2c(nc3ccccc13)/C(=C/c1ccco1)CC2)NC1CCCC1 | 2.35
CCOC(=O)c1c(C)oc2c1c(C(c1cccnc1)N1CCOCC1)c(O)c1ccccc12 (stereo unspecified) | < 0.4
COc1ccc2[nH]c3c(C)c4ccncc4c(C)c3c2c1 | < 0.4
Cc1ccc(CSc2nnc(SCC(=O)N/N=C/c3c[nH]c4ccccc34)s2)cc1 | 10.1
Cc1cc(/C=N/n2c(COc3ccccc3C)nc3ccccc3c2=O)c(O)c([N+](=O)[O-])c1 | 4.86
Nc1nc(=S)c2ncn(C3OC(CO)C(O)C3O)c2[nH]1 (stereo unspecified) | 9.52
O=C(CSc1nnc(COc2ccccc2Cl)o1)NC(=O)NCc1ccco1 | 8.6
N#C/C(=C/c1ccc(OCc2ccc(C(=O)O)cc2)c(Br)c1)c1cccc(F)c1 | < 0.4
C(=C\c1ccco1)/c1ccc2ccccc2n1 | 4.18
Cn1c(SCC(=O)Nc2ccc3nc(SCC(=O)N4CCCC4)sc3c2)nnc1-c1ccccc1 | 2.24
O=C1CC(=O)c2c1cccc2[N+](=O)[O-] | 2.56
O=C(OCC(=O)N1CCN(C(=O)c2ccco2)CC1)c1cc(-c2ccco2)nc2ccccc12 | 1.93
C=CCN1C(=O)/C(=C2/C(=O)N(CC(=O)O)c3ccccc32)S/C1=N/c1nccs1 | < 0.4
N#CC1=C(N)N(c2ccc(F)cc2)C2=C(C1c1ccc(O)cc1)S(=O)(=O)CC2 (stereo unspecified) | 3.4
